Consider eleven compounds from US8679766B2, “E-cadherin as a biomarker of gastroesophageal reflux disease” (The University of North Carolina at Chapel Hill, priority 2009, dated 2014).

Assay [1] concerns rabbit EE. The assay can be described thus: Barrier breaker search: rabbit EE in U-chambers, monitoring RT (marker of PCP) and Isc. In kind it is cell-based. An excerpt: Agents that increase paracellular permeability (PCP) in EE are potential contributors to GERD by enabling diffusion of luminal acid into the intercellular space. Therefore, substances were sought within the refluxate, meals and inflammation that could ‘break the barrier’. This was done by exposing rabbit EE in U-chambers to candidate inflammatory agents while both monitoring RT, as a marker of PCP, and Isc (short circuit current), as a marker of active transport. The inflammatory agents were selected based on presence in EE or on reports that they can break the barrier in other epithelia (47-60).

Assay [2] relates to rabbit EE. The assay can be described thus: Ca++-switch technique: junctional opening and resealing (RT) in EE. In kind it is cell-based. An excerpt:
Below the TJ is the adherens junction (AJ), a structure that encircles the cell and initiates and stabilizes cell-cell adhesion, and by doing so, the AJ supports the barrier function of the TJ (36, 37). The single-pass, transmembrane protein of the AJ is the Ca^++-dependent E-cadherin (E-cad) and this connects directly to a group of catenins (α-catenin, β-catenin, p120-catenin), which in turn connect E-cad to the cytoskeleton via α-catenin's interaction with actin microfilaments, to the microtubules via p120-catenin's interaction with PLEKHA7/nezha and tubulins (38, 39), and to the TJ via p120-catenin's binding to ZO-136. Cell-cell adhesion by E-cad results from the Ca^++-dependent, homotypic, association between the extracellular domains of neighboring cells. Indeed, the Ca^++ sensitivity is so characteristic that it forms the basis of the ‘Ca^++-switch technique’ where Ca^++ removal from both bathing solutions results in junctional opening (decline in RT) and its restoration results in ‘resealing’ (recovery of RT) (40). This method was used to define the role of E-cad in junctional adhesion in EE (41). Removing Ca^++ lowered RT by about 35% over 2 hrs while restoration returned RT to baseline (41). […] Further, resealing was also shown to be dependent on E-cad because it was inhibited by antibodies (HECD-1, DECMA-1) or small synthetic peptides to its extracellular (N-terminal) domain of E-cad, but not by […] antibodies (4A2C7) to its intracellular (C-terminal) domain (41).
E-cadherin is a component of the adherens junction, a structure known to be important in junctional barrier function in most epithelia, including that of the esophagus (36, 41, 121). It is a single-span, transmembrane protein whose carboxy (C)-terminus resides in the cytoplasm and whose amino (N)-terminus resides in the intercellular space. The N-terminus of E-cadherin molecules from membranes of adjacent cells form a barrier by calcium-dependent binding to each other within the intercellular space. Since the protein bridges of E-cadherin both encircle the cell membrane and support the adhesion of the bridging proteins (occludin and claudins) forming the tight junction, they play an integral role in establishing junctional (electrical) resistance and controlling junctional permeability. This role for E-cadherin in (rabbit) EE has recently been shown in the Ussing chamber using the calcium-switch technique (41).

Assay [3] concerns rabbit EE. The assay can be described thus: Junctional opening (RT) of EE by exposure to luminal HCl pH 1.6. Format: cell-based. The following applies: microtubule stabilizer taxol.
Assay [4] concerns cleavage of E-cad in rabbit EE. The experiment in a line: Acid-activated cleavage of E-cad in Ussing-chambered rabbit EE, W-blot for CTF with C-terminal antibody 4A2C7. In kind it is cell-based.
The test system of assay [5] is rabbit EE. The following applies: cited from earlier work.
Assay [6] has as its system esophagitis. Particulars: rat model of reflux; cited from earlier work.
Assay [7] concerns esophagitis. The following applies: patients with duodeno-esophageal reflux post-gastrectomy; cited from earlier work.
Setting [8] is: γ-secretase inhibitor 10 μM, acid-exposed EE.

Entries after “also recorded” stand apart in the source; their conditions may differ. Where two headings read alike, the source gives them in different places.

In the case of “trypsin: barrier breaker at pH 7.4, can be present within refluxates of near-neutral pH”, the “breaks the barrier (RT as marker of PCP)” value in assay [1] (at pH 7.4) is “barrier breakers”. In assay [1] (luminal exposure), the “junctional damage by luminal trypsin (DIS, E-cad cleavage)” value was “results in both DIS (61) and cleavage of E-cad's extracellular domain”.

`C[C@H](CCC(=O)NCCS(=O)(=O)O)[C@H]1CC[C@H]2[C@@H]3[C@H](O)C[C@@H]4C[C@H](O)CC[C@]4(C)[C@H]3C[C@H](O)[C@]12C` [taurocholic acid]: the “breaks the barrier (RT as marker of PCP)” value in assay [1] (at pH 2) is listed as “barrier breakers”.

Turning to `C=C1[C@@H](C)[C@H]2[C@H](Cc3ccccc3)NC(=O)[C@]23[C@H](OC(C)=O)/C=C/[C@@](C)(O)C(=O)[C@@H](C)C/C=C/[C@H]3[C@@H]1O` [cytochalasin D], in assay [2] (microfilament destabilizer, 2 uM), the “junctional resealing during the Ca++-switch technique” value was “inhibited”.

Consider `CC(=O)O[C@H]1C(=O)[C@@]2(C)[C@H]([C@H](OC(=O)c3ccccc3)[C@]3(O)C[C@H](OC(=O)[C@H](O)[C@@H](NC(=O)c4ccccc4)c4ccccc4)C(C)=C1C3(C)C)[C@]1(OC(C)=O)CO[C@@H]1C[C@@H]2O` [taxol], for which the “junctional opening by Ca++-free soln” value in assay [2] (microtubule stabilizer, 50 μM) is recorded as “inhibited”. Further, the junctional resealing entry in assay [2] (taxol, data normalized at the end of junctional opening in Ca++-free solution) was “Inhibition of resealing”. For the same compound, the “junctional opening by exposure to luminal pH 1.6” value in assay [3] is “inhibit junctional opening”.

Take `CCO` [alcohol]: the “breaks the barrier (RT as marker of PCP)” value in assay [1] (at pH 7.4) was “barrier breakers”.

As for `C[C@H](NC(=O)Cc1cc(F)cc(F)c1)C(=O)N[C@H](C(=O)OC(C)(C)C)c1ccccc1` [DAPT75, DAPT], in assay [4] (setting [8]), the “cleavage of E-cad” value is given as “did not block cleavage” and the “pattern of E-cad cleavage (CTFs on W-blot)” value is “yielding two CTFs instead of one”.

On to `CC(=O)Nc1ccc(C=Cc2ccc(N=C=S)cc2S(=O)(=O)O)c(S(=O)(=O)O)c1` [SITS, 4-acetoamido-4′-isothiocyanostilbene-2,2′-disulfonic acid], for which the “cell swelling and necrosis” value in assay [5] (serosal HCl pH 2.0, serosal pretreatment 4 mM) is listed as “prevented”.

`COc1cc2c(c(OC)c1OC)-c1ccc(OC)c(=O)cc1[C@@H](NC(C)=O)CC2` [colchicine]: in assay [2] (microtubule destabilizer), the “junctional resealing during the Ca++-switch technique” value is on record as “inhibited”.

Turning to `CN(C)C(=O)COC(=O)Cc1ccc(OC(=O)c2ccc(NC(=N)N)cc2)cc1` [camostat mesilate], the esophagitis result in assay [6] and in assay [7] was “reduce esophagitis” in each case.

With `CNC(=O)[C@@H](NC(=O)[C@H](CC(C)C)[C@H](O)C(=O)NO)C(C)(C)C` [Marimastat], the “cleavage of E-cad” value in assay [4] (Marimastat 10 μM, luminal HCl pH 1.1 for 30 min or serosal HCl pH 2.0 for 5 min) is listed as “blocked; also recorded: abolition”.

On to `O=S(=O)(O)CCN1CCN(CCO)CC1` [HEPES], for which the “luminal acid-induced increase in PCP (reduction in RT)” value in assay [5] (serosal HEPES) is recorded as “without preventing the luminal acid-induced increase in PCP”. In assay [5] (serosal buffer replacing bathing solution bicarbonate), the “luminal acid-induced cell necrosis” value was “prevented”.
